ChEMBL document CHEMBL1201862, “PubChem BioAssay data set” (2004)
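Grown in 96-well plates, cells were treated for 48 hours with each compound at five concentrations. Insufficient inhibition: endpoint recorded as highest concentration tested. GI50 is the concentration that inhibits growth by half.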 Activity calls are given as the source filed them. Cut-off read from the data, not from the text of the source: active = GI50 up to about 1.1 µM and inactive = higher.

Assays:
Assay in all cases: growth of human tumour cells (NCI), 48 h
MDA-MB-231 = system: MDA-MB-231
U-251 = system: U-251
SNB-75 = system: SNB-75
SK-OV-3 = system: SK-OV-3
MCF7 = system: MCF7
SF-295 = system: SF-295
HCC 2998 = system: HCC 2998
UO-31 = system: UO-31
NCI-H460 = system: NCI-H460
Hs-578T = system: Hs-578T
OVCAR-3 = system: OVCAR-3
HOP-62 = system: HOP-62
Malme-3M = system: Malme-3M
CAKI-1 = system: CAKI-1
A549 = system: A549
DU-145 = system: DU-145
BT-549 = system: BT-549
NCI/ADR-RES = system: NCI/ADR-RES
NCI-H23 = system: NCI-H23

Row | Structure (SMILES) | GI50 (MDA-MB-231) | GI50 (U-251) | GI50 (SNB-75) | GI50 (SK-OV-3) | GI50 (MCF7) | GI50 (SF-295) | GI50 (HCC 2998) | GI50 (UO-31) | GI50 (NCI-H460) | GI50 (Hs-578T) | GI50 (OVCAR-3) | GI50 (HOP-62) | GI50 (Malme-3M) | GI50 (CAKI-1) | GI50 (A549) | GI50 (DU-145) | GI50 (BT-549) | GI50 (NCI/ADR-RES) | GI50 (NCI-H23)
1 | CSc1nc2ccccc2c(=O)n1-c1cccc(C)c1 | > 100 µM (inactive) | > 100 µM (inactive) | 32 µM (inactive) | > 100 µM (inactive) | 32.5 µM (inactive) | 95.5 µM (inactive) | 15.6 µM (inactive) | 0.364 µM (active) | 36 µM (inactive) | 47.4 µM (inactive) | > 100 µM (inactive) | > 100 µM (inactive) | > 100 µM (inactive) | 95.1 µM (inactive) | 94.2 µM (inactive) | > 100 µM (inactive) | > 100 µM (inactive) | 48.4 µM (inactive) | > 100 µM (inactive)
2 | COC(=O)C(Cc1c[nH]c2ccccc12)NC1=Nc2ccncc2S(=O)(=O)N1c1cccc(OC(C)C)c1 (configuration not stated) | 49.4 µM (inactive) | 47.6 µM (inactive) | 53.2 µM (inactive) | > 100 µM (inactive) | 24.7 µM (inactive) | 42 µM (inactive) | 48.8 µM (inactive) | 45.3 µM (inactive) | 27.7 µM (inactive) | > 100 µM (inactive) | 36 µM (inactive) | 56.2 µM (inactive) | 56.1 µM (inactive) | 32.4 µM (inactive) | 29.6 µM (inactive) | 32.8 µM (inactive) | 27.8 µM (inactive) | 20.9 µM (inactive) | 20.1 µM (inactive)
3 | N=C1/C(=C/c2ccco2)C(=O)N=C2SC=NN12 | > 100 µM (inactive) | > 100 µM (inactive) | 99.1 µM (inactive) | > 100 µM (inactive) | > 100 µM (inactive) | > 100 µM (inactive) | > 100 µM (inactive) | > 100 µM (inactive) | > 100 µM (inactive) | > 100 µM (inactive) | > 100 µM (inactive) | > 100 µM (inactive) | > 100 µM (inactive) | > 100 µM (inactive) | > 100 µM (inactive) | > 100 µM (inactive) | > 100 µM (inactive) | > 100 µM (inactive) | > 100 µM (inactive)
4 | NC1(C(=O)OCc2ccccc2)CCCC1 | 15.8 µM (inactive) | 16.3 µM (inactive) | 18 µM (inactive) | 21.9 µM (inactive) | 25.1 µM (inactive) | 15.9 µM (inactive) | 28 µM (inactive) | 15.6 µM (inactive) | 43.3 µM (inactive) | 23.7 µM (inactive) | 11.6 µM (inactive) | 18.8 µM (inactive) | 16.5 µM (inactive) | 19.4 µM (inactive) | 28.8 µM (inactive) | 16.6 µM (inactive) | 17.1 µM (inactive) | 28.6 µM (inactive) | 17.5 µM (inactive)
5 | COc1cc2c(cc1OC)C(=O)/C(=C/c1ccccc1)CC2 | > 100 µM (inactive) | 53.2 µM (inactive) | 17 µM (inactive) | 25.5 µM (inactive) | 27.3 µM (inactive) | 20.7 µM (inactive) | 22.6 µM (inactive) | > 100 µM (inactive) | 26.9 µM (inactive) | > 100 µM (inactive) | 37.6 µM (inactive) | > 100 µM (inactive) | > 100 µM (inactive) | 17.1 µM (inactive) | 27.7 µM (inactive) | 83.2 µM (inactive) | 12.5 µM (inactive) | 17.3 µM (inactive) | > 100 µM (inactive)
6 | COC(=O)[C@@H]1[C@H](OC(C)=O)CCC2[C@@]3(C[C@@H](c4ccoc4)O[C@@H]3OC)[C@H](C)CC[C@]21C(=O)OC (some centres not stated) | > 25 µM (inactive) | > 25 µM (inactive) | > 25 µM (inactive) | > 25 µM (inactive) | > 25 µM (inactive) | > 25 µM (inactive) | > 25 µM (inactive) | > 25 µM (inactive) | > 25 µM (inactive) | > 25 µM (inactive) | > 25 µM (inactive) |  |  | > 25 µM (inactive) | > 25 µM (inactive) | > 25 µM (inactive) | > 25 µM (inactive) | > 25 µM (inactive) | > 25 µM (inactive)
7 | CC(=O)OCC1OC(SC2=N/C(=C\c3cc4c(=O)c5ccccc5sc4s3)C(=O)N2c2ccccc2)C(OC(C)=O)C(OC(C)=O)C1OC(C)=O (configuration not stated) | 58.2 µM (inactive) | 23.9 µM (inactive) | 65.8 µM (inactive) |  | 78.7 µM (inactive) | > 100 µM (inactive) | > 100 µM (inactive) | > 100 µM (inactive) | 83.2 µM (inactive) | > 100 µM (inactive) | > 100 µM (inactive) | > 100 µM (inactive) | > 100 µM (inactive) | > 100 µM (inactive) |  | > 100 µM (inactive) | 63.8 µM (inactive) | > 100 µM (inactive) | > 100 µM (inactive)
8 | CC(C)(/N=N/C(C)(C)C1=NCCN1)C1=NCCN1 | > 100 µM (inactive) | > 100 µM (inactive) | > 100 µM (inactive) |  | > 69.5 µM (inactive) | > 100 µM (inactive) | > 100 µM (inactive) | > 74 µM (inactive) | > 100 µM (inactive) | > 100 µM (inactive) | > 100 µM (inactive) | > 100 µM (inactive) | > 100 µM (inactive) | > 83.9 µM (inactive) |  | > 100 µM (inactive) | > 100 µM (inactive) | > 100 µM (inactive) | 
9 | O=c1c(SSc2coc3cc(F)ccc3c2=O)coc2cc(F)ccc12 | 11.5 µM (inactive) | 21.3 µM (inactive) | 11 µM (inactive) |  | 14.6 µM (inactive) | 6.68 µM (inactive) | 16.1 µM (inactive) | 11.4 µM (inactive) | 4.43 µM (inactive) | 14.3 µM (inactive) | 21.6 µM (inactive) | 19.8 µM (inactive) | 29.6 µM (inactive) | 20.1 µM (inactive) | 7.29 µM (inactive) | 47.3 µM (inactive) | > 100 µM (inactive) | 17.3 µM (inactive) | 25.1 µM (inactive)
10 | CC(C)CCn1c(=O)c2c(=O)[nH][nH]c2c2ccccc21 | > 100 µM (inactive) | > 100 µM (inactive) | > 10 µM (inactive) |  | > 100 µM (inactive) | > 100 µM (inactive) | > 100 µM (inactive) | > 100 µM (inactive) | > 100 µM (inactive) | > 100 µM (inactive) | > 100 µM (inactive) | > 100 µM (inactive) | > 100 µM (inactive) |  | > 100 µM (inactive) | > 100 µM (inactive) | > 100 µM (inactive) | > 100 µM (inactive) | > 100 µM (inactive)
11 | COc1ccc2nc(-c3ccccc3)c(=O)[nH]c2c1 | > 100 µM (inactive) |  | > 100 µM (inactive) |  | > 100 µM (inactive) | > 100 µM (inactive) | > 100 µM (inactive) |  | > 100 µM (inactive) | > 100 µM (inactive) | > 100 µM (inactive) | > 100 µM (inactive) | > 100 µM (inactive) | > 100 µM (inactive) | > 100 µM (inactive) | > 100 µM (inactive) | > 100 µM (inactive) | > 100 µM (inactive) | > 100 µM (inactive)
12 | COc1ccc2c(c1)[C@@]13CCN4CC5=CCO[C@H]6CC(=O)N2[C@H]1[C@H]6[C@H]5C[C@H]43 | > 100 µM (inactive) | > 100 µM (inactive) |  | > 100 µM (inactive) | > 100 µM (inactive) | 70 µM (inactive) | > 100 µM (inactive) | > 100 µM (inactive) | > 100 µM (inactive) | 33.7 µM (inactive) | > 100 µM (inactive) | > 100 µM (inactive) | 90.4 µM (inactive) | > 100 µM (inactive) | > 100 µM (inactive) | > 100 µM (inactive) | > 100 µM (inactive) | 47.2 µM (inactive) | > 100 µM (inactive)
13 | C=C(c1ccc2[nH]c(NC(=O)OC)nc2c1)c1cccs1 | 0.365 µM (active) | 0.0791 µM (active) |  | 0.135 µM (active) | 0.0925 µM (active) | 0.051 µM (active) | 0.217 µM (active) | 0.916 µM (active) | 0.118 µM (active) | 0.417 µM (active) | 0.0379 µM (active) | 0.206 µM (active) | 0.0855 µM (active) | < 0.046 µM (active) | 0.16 µM (active) | 0.309 µM (active) | 0.679 µM (active) | 0.0488 µM (active) | 0.129 µM (active)
14 | NC1CC(=O)c2ccccc21 (configuration not stated) | > 100 µM (inactive) | > 100 µM (inactive) | > 100 µM (inactive) | > 100 µM (inactive) | > 100 µM (inactive) | > 100 µM (inactive) | > 100 µM (inactive) | > 100 µM (inactive) |  | > 100 µM (inactive) | > 100 µM (inactive) | > 100 µM (inactive) |  | > 100 µM (inactive) | > 100 µM (inactive) | > 100 µM (inactive) | > 100 µM (inactive) | > 100 µM (inactive) | > 100 µM (inactive)
15 | Nc1ccc(/N=N\c2ccc(-c3ccc(O)cc3)cc2)c2ccc(S(=O)(=O)O)cc12 | > 100 µM (inactive) | > 100 µM (inactive) | 77.1 µM (inactive) | > 100 µM (inactive) | > 100 µM (inactive) | > 100 µM (inactive) |  | > 100 µM (inactive) | > 100 µM (inactive) | > 100 µM (inactive) | > 100 µM (inactive) | > 100 µM (inactive) | > 100 µM (inactive) | > 100 µM (inactive) | > 100 µM (inactive) | > 100 µM (inactive) | > 100 µM (inactive) | > 100 µM (inactive) | > 100 µM (inactive)
